How the values were obtained:
[1] = target: Agrocybe aegerita glycosylated oxalate decarboxylase (OxDc), naturally expressed by acid induction; test: Determination of Km of Agrocybe aegerita oxalate decarboxylase by double reciprocal method; oxalate degradation by HPLC, 37° C.; assay type: biochemical
Method: In this invention, high performance liquid chromatography (HPLC) is used to determine the activity of oxalate decarboxylase. The operation process is as follows: preheating 1.0 mL 5 mM (mmol/L) oxalate solution (25 mM citrate buffer solution contained, pH 3.0) at 37° C. for 10 min and adding 0.01-0.1 ml (added volume is adjusted according to enzyme concentration) solution containing oxalate decarboxylase or fungus powder suspension into the oxalate solution for reaction; adding 50 μL 2.5M (molar concentration) H2SO4 to inactivate the enzyme after reacting for 30 minutes; quickly centrifuging the reaction solution and collecting supernatant to determine the concentration of residual oxalate by using HPLC. One enzyme activity unit (U) is defined as the required enzyme amount to degrade 1 micromole oxalate per minute on this condition.
The enzyme activity of the purified glycosylated oxalate decarboxylase obtained in Embodiment 2 was determined at pH 3.0, and the result is shown in Table 1. […] Different enzyme batches show the Kin value between 0.03 and 1.0 mM at different pH (pH 2.5-6.0), and the average Kin value at optimal pH range of pH 2.5-3.0 is 0.06 mM, as is shown in Table 2.

[2] = system: Bacillus subtilis oxalate decarboxylase (OxDc); settings: even under a condition of an ideal pH value; read-out: Kin value; cited from earlier work

**Q.** Which “Kin value (average at optimal pH)” value ([1]; optimal pH range pH 2.5-3.0) does the source give for O=C(O)C(=O)O [oxalate] here?
**A.** 0.06 mM

**Q.** What about the Km ([1]; pH 3.0-3.5) of the same molecule?
**A.** 120 ± 40 µM

**Q.** What about the Km ([1]; pH 3.5-4.0) of the same molecule?
**A.** 200 ± 30 µM

**Q.** What about the Km ([1]; pH 4.0-4.5) of the same molecule?
**A.** 250 ± 80 µM

**Q.** And the Km ([1]; pH 4.5-5.0)?
**A.** 360 ± 130 µM

**Q.** And the Km ([1]; pH 5.0-6.0)?
**A.** 700 ± 300 µM

**Q.** And the Km [2]?
**A.** 4000 µM
